Laboratory results from patent publication US20150274777A1, “KETOAMIDE IMMUNOPROTEASOME INHIBITORS” (HOFFMANN-LA ROCHE INC., priority 2012, published 2015).

How the values were obtained:
β5i = target: T1, β5i (Homo sapiens, UniProt P20618+P28062); assay: Cell-Based Proteasome Activity/Selectivity Assay (Ramos cells), substrate (ANW)2Rh110; details: highest concentration tested 20 μM, read-out: Ic50 ramos:ac-(anw)2-r110
T1 construct: protease activity associated with the proteasome complex in cultured cells; endogenous in cells; host or cells: Ramos cells
Method in brief: (§1)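 Ramos cells (5×10^4/well in DPBS) were treated with 4-fold compound dilutions (top 20 μM) for 30 min at 37 °C. A 2× mix of 0.025% digitonin, 20 μM of each Rh110 substrate and 0.5 M sucrose was added, then incubated 120 min at room temperature. Rh110 fluorescence was read at 500/519 nm.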

β5c = target: T2, β5c (Homo sapiens, UniProt P20618+P28074); assay: Cell-Based Proteasome Activity/Selectivity Assay (Ramos cells), substrate (WLA)2Rh110; details: highest concentration tested 20 μM
T2 construct: protease activity associated with the proteasome complex in cultured cells; endogenous in cells; host or cells: Ramos cells
Method in brief: as §1

β2c/2i = assay: Cell-Based Proteasome Activity/Selectivity Assay (Ramos cells), substrate (KQL)2Rh110; details: highest concentration tested 20 μM
Method in brief: as §1

β1i = target: T3, β1i (Homo sapiens, UniProt P28065+P40306); assay: Cell-Based Proteasome Activity/Selectivity Assay (Ramos cells), substrate (PAL)2Rh110; details: highest concentration tested 20 μM
T3 construct: protease activity associated with the proteasome complex in cultured cells; endogenous in cells; host or cells: Ramos cells
Method in brief: as §1

β1c = target: T4, β1c (Homo sapiens, UniProt P28072+Q99436); assay: Cell-Based Proteasome Activity/Selectivity Assay (Ramos cells), substrate (LLE)2 Rh110; details: highest concentration tested 20 μM
T4 construct: protease activity associated with the proteasome complex in cultured cells; endogenous in cells; host or cells: Ramos cells
Method in brief: as §1

[1] = system: IP10 level in PBMCs stimulated with CpG Type A; assay: PBMC IP-10 Assay; type: cell-based; details: CpG Type A 2.5 μM
Method in brief: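 Human PBMCs (~2×10^5/well) preincubated 60 min at 37° C. with titrated compound (1% DMSO final), then stimulated with CpG Type A (ODN 2216) at 2.5 μM final overnight. Supernatant IP-10 quantified by AlphaLISA; viability of remaining cells by ATP luminescence.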

SMILES	IC50 (β5i)	IC50 (β5c)	IC50 (β2c/2i)	IC50 (β1i)	IC50 (β1c)	EC50 [1]
C[C@H](NC(=O)OCc1ccccc1)C(=O)N[C@@H](Cc1c[nH]c2ccccc12)C(=O)N[C@@H](Cc1ccccc1)C(=O)C(=O)N(C)Cc1ccccc1 [Example 38, {(S)-1-[(S)-1-[(S)-1-Benzyl-2-(benzyl-methyl-carbamoyl)-2-oxo-ethylcarbamoyl]-2-(1H-indol-3-yl)-ethylcarbamoyl]-ethyl}-carbamic acid benzyl ester]	1.21 µM	4.11 µM	> 20 µM	> 20 µM	> 20 µM	10.1 µM
C[C@H](NC(=O)CN1CCOCC1)C(=O)N[C@@H](Cc1c[nH]c2ccccc12)C(=O)N[C@@H](Cc1ccccc1)C(=O)C(=O)NCc1ccccc1 [Example 22, (S)—N-Benzyl-3-{(S)-3-(1H-indol-3-yl)-2-[(S)-2-(2-morpholin-4-yl-acetylamino)-propionylamino]-propionylamino}-2-oxo-4-phenyl-butyramide]	0.124 µM	3.3 µM	> 20 µM	1.1 µM	> 20 µM	5.78 µM
C[C@H](NC(=O)C1Cc2ccccc2C1)C(=O)N[C@@H](CCc1ccccc1)C(=O)N[C@@H](Cc1ccccc1)C(=O)C(=O)NCc1ccccc1 [Example 42, Indan-2-carboxylic acid {(S)-1-[(S)-1-((S)-1-benzyl-2-benzylcarbamoyl-2-oxo-ethylcarbamoyl)-3-phenyl-propylcarbamoyl]-ethyl}-amide]	0.004 µM	0.014 µM	> 20 µM	0.968 µM	18.1 µM	0.379 µM
CCCC[C@H](NC(=O)[C@H](CCS(C)(=O)=O)NC(=O)[C@H](C)NC(=O)C1=C(C)c2ccccc2C1)C(=O)C(=O)NCc1ccccc1 [Example 15, 3-Methyl-1H-indene-2-carboxylic acid {(S)-1-[(S)-1-((S)-1-benzylaminooxalyl-pentylcarbamoyl)-3-methanesulfonyl-propylcarbamoyl]-ethyl}-amide]	0.101 µM	3.54 µM	> 20 µM	0.21 µM	8.43 µM	1.91 µM
CC1=C(C(=O)N[C@@H](C)C(=O)N[C@@H](CCS(C)(=O)=O)C(=O)N[C@@H](Cc2ccccc2)C(=O)C(=O)NCc2ccccc2)Cc2ccccc21 [Example 20, 3-Methyl-1H-indene-2-carboxylic acid {(S)-1-[(S)-1-((S)-1-benzyl-2-benzylcarbamoyl-2-oxo-ethylcarbamoyl)-3-methanesulfonyl-propylcarbamoyl]-ethyl}-amide]	0.015 µM	0.157 µM	> 20 µM	0.738 µM	> 20 µM	1.64 µM
COCCNC(=O)C(=O)[C@H](Cc1ccccc1)NC(=O)[C@H](Cc1c[nH]c2ccccc12)NC(=O)[C@H](C)NC(=O)OCc1ccccc1 [Example 33, {(S)-1-[(S)-1-[(S)-1-Benzyl-2-(2-methoxy-ethylcarbamoyl)-2-oxo-ethylcarbamoyl]-2-(1H-indol-3-yl)-ethylcarbamoyl]-ethyl}-carbamic acid benzyl ester]	0.014 µM	0.597 µM	> 20 µM	0.205 µM	17.5 µM	1.38 µM
CCCC[C@H](NC(=O)[C@H](Cc1c[nH]c2ccccc12)NC(=O)[C@H](C)NC(=O)C1=C(C)c2ccccc2C1)C(=O)C(=O)NCc1ccccc1 [Example 5, 3-Methyl-1H-indene-2-carboxylic acid {(S)-1-[(S)-1-((S)-1-benzylaminooxalyl-pentylcarbamoyl)-2-(1H-indol-3-yl)-ethylcarbamoyl]-ethyl}-amide]	0.018 µM	0.56 µM	> 20 µM	0.142 µM	3.35 µM	1.22 µM
C[C@H](NC(=O)OCc1ccccc1)C(=O)N[C@@H](Cc1c[nH]c2ccccc12)C(=O)N[C@@H](Cc1ccccc1)C(=O)C(=O)NC1CC1 [Example 32, {(S)-1-[(S)-1-((S)-1-Benzyl-2-cyclopropylcarbamoyl-2-oxo-ethylcarbamoyl)-2-(1H-indol-3-yl)-ethylcarbamoyl]-ethyl}-carbamic acid benzyl ester]	0.011 µM	0.365 µM	> 20 µM	0.266 µM	12.2 µM	0.94 µM
COC[C@H](NC(=O)C1Cc2ccccc2C1)C(=O)N[C@@H](Cc1ccc(OC)cc1)C(=O)N[C@@H](Cc1ccccc1)C(=O)C(=O)NCc1ccccc1 [Example 23, Indan-2-carboxylic acid {(S)-1-[(S)-1-((S)-1-benzyl-2-benzylcarbamoyl-2-oxo-ethylcarbamoyl)-2-(4-methoxy-phenyl)-ethylcarbamoyl]-2-methoxy-ethyl}-amide]	0.001 µM	0.005 µM	> 20 µM	0.097 µM	7.32 µM	0.356 µM

The next lines start with results.

IC50 (β5i)	IC50 (β5c)	IC50 (β2c/2i)	IC50 (β1i)	IC50 (β1c)	SMILES	EC50 [1]
0.105 µM	1.93 µM	> 20 µM	0.499 µM	17.5 µM	COc1ccc(C[C@H](NC(=O)[C@H](C)NC(=O)c2cn3ccccc3n2)C(=O)N[C@@H](Cc2ccccc2)C(=O)C(=O)NCc2ccccc2)cc1 [Example 49, Imidazo[1,2-a]pyridine-2-carboxylic acid {(S)-1-[(S)-1-((S)-1-benzyl-2-benzylcarbamoyl-2-oxo-ethylcarbamoyl)-2-(4-methoxy-phenyl)-ethylcarbamoyl]-ethyl}-amide]	4.37 µM
0.524 µM	6.16 µM	> 20 µM	2.73 µM	> 20 µM	C[C@H](NC(=O)OCc1ccccc1)C(=O)NC(CC(F)(F)F)C(=O)N[C@@H](Cc1ccccc1)C(=O)C(=O)NCc1ccccc1 (stereo partly drawn) [Example 57, {(S)-1-[1-((S)-1-Benzyl-2-benzylcarbamoyl-2-oxo-ethylcarbamoyl)-3,3,3-trifluoro-propylcarbamoyl]-ethyl}-carbamic acid benzyl ester]	5.03 µM
0.013 µM	1.24 µM	> 20 µM	13.1 µM	> 20 µM	C[C@H](NC(=O)c1cc2ccccc2n1C)C(=O)N[C@@H](Cc1ccccc1)C(=O)N[C@@H](Cc1ccccc1)C(=O)C(=O)NCc1ccccc1 [Example 44, 1-Methyl-1H-indole-2-carboxylic acid {(S)-1-[(S)-1-((S)-1-benzyl-2-benzylcarbamoyl-2-oxo-ethylcarbamoyl)-2-phenyl-ethylcarbamoyl]-ethyl}-amide]	0.596 µM
0.013 µM	0.25 µM	> 20 µM	0.496 µM	6.38 µM	COc1ccc(C[C@H](NC(=O)[C@H](C)NC(=O)c2cc3ncccc3n2C)C(=O)N[C@@H](Cc2ccccc2)C(=O)C(=O)NCc2ccccc2)cc1 [Example 45]	1.32 µM
0.021 µM	5.18 µM	> 20 µM	9.84 µM	> 20 µM	C[C@H](NC(=O)OCc1ccccc1)C(=O)N[C@@H](Cc1ccc(Cl)cc1)C(=O)N[C@@H](Cc1ccccc1)C(=O)C(=O)NCc1ccccc1 [Example 51, {(S)-1-[(S)-1-((S)-1-Benzyl-2-benzylcarbamoyl-2-oxo-ethylcarbamoyl)-2-(4-chloro-phenyl)-ethylcarbamoyl]-ethyl}-carbamic acid benzyl ester]	2.59 µM
